In patent publication US10287267B2, “Isoquinolin-3-yl carboxamides and preparation and use thereof” (Samumed, LLC, priority 2016, dated 2019):
Like-named read-outs stand apart in the source and are kept apart here.

Columns and labels:
IL-6 = IL-6 inhibition in LPS-stimulated human peripheral blood mononuclear cells (HTRF); assay type: cell-based; settings: Homo sapiens, PBMC; for EC50: Table 9, huPBMCs, LPS 50 ng/mL, 22 hours, dose-response starting from 10 μM; for inhibition at 10 µM: read-out: percent value in parentheses beside EC50 >10 μM;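 for all read-outs here: IL-6 detected by HTRF with an XL665- and Cryptate-labelled anti-IL-6 antibody pair, samples run in duplicate, EC50 obtained from a four-parameter Levenberg-Marquardt curve fit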
Experimental: After 22 hour incubation, a mixture of anti-IL6 XL665 and anti-IL-6 Cryptate diluted in reconstitution buffer (Catalog #62IL6PEC, Cisbio Inc., Bedford, Mass.) was added to each well. […] All samples were processed in duplicate. […] EC50 was determined using software generated by Dotmatics Limited (Windhill Bishops Stortford Herts, UK) using the Levenberg-Marquardt 4 parameter fitting procedure with finite different gradients.

recombinant GSK3β kinase = recombinant GSK3β kinase (Homo sapiens (Human), UniProt P49841); assay: GSK3β kinase assay (Ser/Thr 09 peptide Z-lyte FRET); assay type: biochemical; settings: 46 μM ATP, 1 h room temperature;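 note: kinase activity read as coumarin to fluorescein emission ratio, 11-point threefold dilutions from 10 µM to 0.0003 µM in duplicate, unphosphorylated and phosphorylated peptide as 0% and 100% controls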
recombinant GSK3β kinase, sequence (P49841 whole entry): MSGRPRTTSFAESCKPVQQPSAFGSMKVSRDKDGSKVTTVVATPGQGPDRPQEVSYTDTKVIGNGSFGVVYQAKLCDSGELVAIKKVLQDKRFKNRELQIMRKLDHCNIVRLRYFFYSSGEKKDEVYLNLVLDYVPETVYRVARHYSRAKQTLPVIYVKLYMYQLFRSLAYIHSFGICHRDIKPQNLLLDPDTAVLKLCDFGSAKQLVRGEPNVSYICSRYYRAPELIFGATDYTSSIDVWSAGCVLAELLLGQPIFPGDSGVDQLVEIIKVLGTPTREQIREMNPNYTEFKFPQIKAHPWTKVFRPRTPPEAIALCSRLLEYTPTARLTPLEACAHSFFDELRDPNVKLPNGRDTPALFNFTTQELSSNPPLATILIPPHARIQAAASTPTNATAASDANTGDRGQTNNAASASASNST

[1] = molecular target: recombinant DYRK1A kinase (Homo sapiens (Human), UniProt Q13627); assay: DYRK1A kinase assay (Ser/Thr 18 peptide Z-lyte FRET); assay type: biochemical; settings: 30 μM ATP, 1 h room temperature;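 note: Read-out is the coumarin to fluorescein emission ratio, referenced to unphosphorylated (0%) and phosphorylated (100%) Ser/Thr 18 peptide controls, values from dose-response curves by non-linear regression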
[2] = test system: Tau phosphorylation at Ser396 (pSer396); assay: Tau phosphorylation assay (pSer396 ELISA / western blot) in SH-SY5Y cells; assay type: cell-based, human; settings: Homo sapiens, read-out: pSer396 Tau EC50;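 note: EC50 for reduction of Tau pSer396 in lysed cells, measured by colorimetric ELISA or chemiluminescent western blot, both using the same pSer396 antibody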
[3] = test system: Wnt pathway (Sp5-Luc reporter, TCF/LEF binding sites) in SW480 colon carcinoma cells; assay: Screening assay for Wnt activity: Sp5-Luc reporter gene assay; assay type: cell-based, human; settings: Homo sapiens; for EC50: Sp5-Luc reporter, SW480 cells, 36 to 48 hours; for inhibition at 10 µM: SW480, read-out: percent inhibition at 10 μM;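 for all read-outs here: firefly luciferase luminescence read in stably transduced SW480 cells carrying the Sp5 promoter reporter with eight TCF/LEF sites, compounds given in 0.1% DMSO final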
Experimental: The screening assay for Wnt activity is described as follows.
Following incubation, 15 μl of BriteLite Plus luminescence reagent (Perkin Elmer) was added to each well of the 384-well assay plates. The plates were placed on an orbital shaker for 2 min and then luminescence was quantified using the Envision (Perkin Elmer) plate reader.

[4] = test system: α-smooth muscle actin (αSMA) positive LL29 cells; assay: Inhibition of fibrotic process: αSMA in TGF-β1 treated primary human fibroblasts from IPF patients; assay type: cell-based; settings: Homo sapiens, Fibroblast; for EC50: 96 h, Table 8, LL29 fibroblasts from IPF patients, TGF-β1 20 ng/mL, 4 days, dose-response 10 μM to 0.94 nM; for inhibition at 10 µM: read-out: percent value in parentheses beside EC50 >10 μM;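 for all read-outs here: controls were TGF-β1 stimulated wells with DMSO vehicle (positive) and cells given DMSO alone (negative), cultured in F12 medium with 1% fetal bovine serum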
[5] = test system: SW480 colon carcinoma cells; assay: Cell viability assay (CellTiter-Glo); assay type: cell-based, human; settings: Homo sapiens; for EC50: 96 h, SW480 cells, CellTiter-Glo, four days incubation; for inhibition at 10 µM: SW480, read-out: percent inhibition at 10 μM
[6] = SH-SY5Y cells, overnight (16-18 h) exposure

Structure (SMILES) | EC50 (IL-6) | EC50 (recombinant GSK3β kinase) | EC50 [1] | EC50 [2, 6] | EC50 [3] | EC50 [4] | EC50 [5] | inhibition at 10 µM (IL-6) | EC50 ([2]; SH-SY5Y) | inhibition at 10 µM [3] | inhibition at 10 µM [4] | inhibition at 10 µM [5]
Cn1cc(-c2ccc3cnc(NC(=O)C4CCC(F)(F)CC4)cc3c2)nn1 [Compound 441, 4,4-Difluoro-N-(6-(1-methyl-1H-1,2,3-triazol-4-yl)isoquinolin-3-yl) cyclohexane-1-carboxamide] | 3.35 µM | 0.005 µM | 0.0091 µM | 0.073 µM | 1.21 µM | 0.057 µM | 5.27 µM |  |  |  |  | 
Cn1cc(-c2ccc3cnc(NC(=O)[C@H]4CC[C@H](N(C)C)CC4)cc3c2)nn1 [Compound 443, trans-4-(Dimethylamino)-N-(6-(1-methyl-1H-1,2,3-triazol-4-yl)isoquinolin-3-yl)cyclohexane-1-carboxamide] | 3.29 µM | 0.013 µM | 0.0022 µM | 0.289 µM | 0.397 µM | 0.371 µM | 1.68 µM |  |  |  |  | 
CN1CCN(C[C@H]2CC[C@H](C(=O)Nc3cc4cc(-c5cn(C)nn5)ccc4cn3)CC2)CC1 [Compound 448, trans-N-(6-(1-Methyl-1H-1,2,3-triazol-4-yl)isoquinolin-3-yl)-4-((4-methylpiperazin-1-yl)methyl)cyclohexane-1-carboxamide] | 2.19 µM | 0.011 µM | 0.0012 µM | 0.106 µM | 0.289 µM | 0.059 µM | 0.626 µM |  |  |  |  | 
Cn1cc(-c2ccc3cnc(NC(=O)C4CCNCC4)cc3c2)nn1 [Compound 452, N-(6-(1-Methyl-1H-1,2,3-triazol-4-yl)isoquinolin-3-yl)piperidine-4-carboxamide] | 2.97 µM | 0.007 µM | 0.0004 µM | 0.912 µM | 0.787 µM | 0.22 µM | 1.45 µM |  |  |  |  | 
Cn1cc(-c2ccc3cnc(NC(=O)C4CCN(CC5(C(F)(F)F)CC5)CC4)cc3c2)nn1 [Compound 470, N-(6-(1-Methyl-1H-1,2,3-triazol-4-yl)isoquinolin-3-yl)-1-((1-(trifluoromethyl)cyclopropyl)methyl)piperidine-4-carboxamide] | 3.55 µM | 0.004 µM | 0.0027 µM | 0.095 µM | 1.18 µM | 0.387 µM | 4.19 µM |  |  |  |  | 
Cn1cc(-c2ccc3cnc(NC(=O)C4CCN(CC5(C)COC5)CC4)cc3c2)nn1 [Compound 472, N-(6-(1-Methyl-1H-1,2,3-triazol-4-yl)isoquinolin-3-yl)-1-((3-methyloxetan-3-yl)methyl)piperidine-4-carboxamide] | 5.41 µM | 0.008 µM | 0.0032 µM | 0.2 µM | 0.382 µM | 0.243 µM | 5.09 µM |  |  |  |  | 
Cn1cc(-c2ccc3cnc(NC(=O)C4CCN(C(=O)CN5CCCC5)CC4)cc3c2)nn1 [Compound 475, N-(6-(1-Methyl-1H-1,2,3-triazol-4-yl)isoquinolin-3-yl)-1-(2-(pyrrolidin-1-yl)acetyl)piperidine-4-carboxamide] | 2.56 µM | 0.023 µM | 0.0032 µM | 1.8 µM | 0.701 µM | 0.14 µM | 1.06 µM |  |  |  |  | 
CN1CCC(N2CCC(C(=O)Nc3cc4cc(-c5cn(C)nn5)ccc4cn3)CC2)CC1 [Compound 477, 1′-Methyl-N-(6-(1-methyl-1H-1,2,3-triazol-4-yl)isoquinolin-3-yl)-[1,4′-bipiperidine]-4-carboxamide] | 2.99 µM | 0.006 µM | 0.0011 µM | 0.188 µM | 0.327 µM | 0.077 µM | 0.719 µM |  |  |  |  | 
Cn1cc(-c2ccc3cnc(NC(=O)[C@@H]4CCCNC4)cc3c2)nn1 [Compound 481, (R)—N-(6-(1-Methyl-1H-1,2,3-triazol-4-yl)isoquinolin-3-yl)piperidine-3-carboxamide] | 1.14 µM | 0.004 µM | 0.0043 µM | 0.662 µM | 1.54 µM | 1.02 µM | 1.37 µM |  |  |  |  | 
CC(C)CN1CCC[C@@H](C(=O)Nc2cc3cc(-c4cn(C)nn4)ccc3cn2)C1 [Compound 483, (R)-1-Isobutyl-N-(6-(1-methyl-1H-1,2,3-triazol-4-yl)isoquinolin-3-yl) piperidine-3-carboxamide] | 9.62 µM | 0.045 µM | 0.0113 µM | 0.611 µM | 1.87 µM | 0.315 µM | 7.34 µM |  |  |  |  | 
Cn1cc(-c2ccc3cnc(NC(=O)CN4CCCC4)cc3c2)nn1 [Compound 487, N-(6-(1-Methyl-1H-1,2,3-triazol-4-yl)isoquinolin-3-yl)-2-(pyrrolidin-1-yl) acetamide] | 3.3 µM | 0.007 µM | 0.0077 µM | 0.161 µM | 0.446 µM | 0.367 µM | 2.68 µM |  |  |  |  | 
Cn1cc(-c2ccc3cnc(NC(=O)CN4C5CCC4CC5)cc3c2)nn1 [Compound 513, 2-(7-Azabicyclo[2.2.1]heptan-7-yl)-N-(6-(1-methyl-1H-1,2,3-triazol-4-yl)isoquinolin-3-yl)acetamide] | > 10 µM | 0.043 µM | 0.0104 µM |  | 6.43 µM | 1.35 µM | 9.06 µM | 14.5% | 0.864 µM |  |  | 
Cn1cncc1-c1ccc2cnc(NC(=O)C(C)(C)F)cc2c1 [Compound 517, 2-Fluoro-2-methyl-N-(6-(1-methyl-1H-imidazol-5-yl)isoquinolin-3-yl) propanamide] | 9.07 µM | 0.47 µM | 0.0096 µM | 1.3 µM | > 10 µM | > 10 µM | > 10 µM |  |  | 35.8% | 29.9% | 27.5%
Cn1cncc1-c1ccc2cnc(NC(=O)C3(F)CC3)cc2c1 [Compound 521, 1-Fluoro-N-(6-(1-methyl-1H-imidazol-5-yl)isoquinolin-3-yl)cyclopropane-1-carboxamide] | 3.25 µM | 0.234 µM | 0.0016 µM | 1.1 µM | 1.8 µM | 1.99 µM | 3.63 µM |  |  |  |  | 
CN1CC2(CC(C(=O)Nc3cc4cc(-c5cncn5C)ccc4cn3)C2)C1 [Compound 523, 2-Methyl-N-(6-(1-methyl-1H-imidazol-5-yl)isoquinolin-3-yl)-2-azaspiro[3.3] heptane-6-carboxamide] | 0.201 µM | 0.042 µM | 0.0029 µM | 2.2 µM | 0.683 µM | > 10 µM | 0.447 µM |  |  |  | 32.6% | 
Cn1cncc1-c1ccc2cnc(NC(=O)C3(F)CCCCC3)cc2c1 [Compound 527, 1-Fluoro-N-(6-(1-methyl-1H-imidazol-5-yl)isoquinolin-3-yl)cyclohexane-1-carboxamide] | 9.97 µM | 0.415 µM | 0.0098 µM | 2.4 µM | > 10 µM | > 10 µM | > 10 µM |  |  | 23.5% | 37.3% | 43.6%
CO[C@H]1CC[C@H](C(=O)Nc2cc3cc(-c4cncn4C)ccc3cn2)CC1 [Compound 528, trans-4-Methoxy-N-(6-(1-methyl-1H-imidazol-5-yl)isoquinolin-3-yl) cyclohexane-1-carboxamide] | 1.79 µM | 0.096 µM | 0.0008 µM | 0.323 µM | 1.15 µM | 0.103 µM | 1.42 µM |  |  |  |  | 
Cn1cncc1-c1ccc2cnc(NC(=O)[C@H]3CC[C@H](CO)CC3)cc2c1 [Compound 531, trans-4-(Hydroxymethyl)-N-(6-(1-methyl-1H-imidazol-5-yl)isoquinolin-3-yl)cyclohexane-1-carboxamide] | 0.698 µM | 0.05 µM | 0.0009 µM | 0.146 µM | 1.06 µM | 0.153 µM | 0.989 µM |  |  |  |  | 
Cn1cncc1-c1ccc2cnc(NC(=O)C3CNC3)cc2c1 [Compound 535, N-(6-(1-Methyl-1H-imidazol-5-yl)isoquinolin-3-yl)azetidine-3-carboxamide] | > 10 µM | 0.087 µM | 0.0045 µM | 6.2 µM | > 10 µM | > 10 µM | > 10 µM | 3.1% |  | 44.9% | 17.7% | 42%
Cn1cncc1-c1ccc2cnc(NC(=O)[C@H]3CCCO3)cc2c1 [Compound 537, (R)—N-(6-(1-Methyl-1H-imidazol-5-yl)isoquinolin-3-yl)tetrahydrofuran-2-carboxamide] | 1.24 µM | 0.095 µM | 0.0089 µM | 0.451 µM | 4.8 µM | 0.599 µM | 8.3 µM |  |  |  |  | 
COCCN1CCC(C(=O)Nc2cc3cc(-c4cncn4C)ccc3cn2)CC1 [Compound 547, 1-(2-Methoxyethyl)-N-(6-(1-methyl-1H-imidazol-5-yl)isoquinolin-3-yl) piperidine-4-carboxamide] | 1.12 µM | 0.104 µM | 0.0034 µM | 0.379 µM | 2.23 µM | 0.16 µM | 0.931 µM |  |  |  |  | 
